Data taken from patent US12390472B2 (SUZHOU SINOVENT PHARMACEUTICALS CO., LTD., priority 2018, dated 2025).
Where two headings read alike, the source gives them in different places.

Legend:
Pfeiffer cells = experiment: Experiment on Pfeiffer cell proliferation (CellTiter-Glo); type: cell-based, human
Protocol: 90 uL of cells were added to each well of a 96-well plate at 12000 cells/well, and cell-free culture medium was added to blank control wells. The plate was incubated overnight in an incubator at 37° C., 5% CO2 and 100% relative humidity. The compounds were diluted from highest to lowest concentration gradient with DMSO to make stock solutions at 400-fold and 10-fold concentration. 10 μL of 10× compound working solution was added to the cell culture plate, and the total concentration of the compound was detected from 10 μM, 9 concentration points in total, and 3-fold serial dilution was performed. 10 μL of DMSO-cell culture medium mixture solution was added to the vehicle control wells and blank control wells. The final concentration of DMSO was 0.25%. The plate was put back in the incubator for another 7 days of culturing.
The cell culture plate cultured for 7 days was taken out of the incubator, and the suspended cells in the 96-well plate were mixed well by pipetting multiple times. 74 uL of fresh cell culture medium was added to a new 96-well plate, and 16 uL of cell suspension was pipetted from the 96-well plate with cells mixed well by pipetting into the new 96-well plate to bring the total volume to 90 uL. Cells in the new 96-well plate were treated with the compound. The new 96-well plate was put back in the incubator for another 7 days of culturing, and then cell viability was detected directly.
84 μL of cell suspension was taken from the cell culture plate for cell viability detection.
CellTiter-Glo buffer and substrate were thawed and balanced to room temperature. The CellTiter-Glo buffer was added to a bottle of CellTiter-Glo substrate to dissolve the substrate, thereby preparing CellTiter-Glo working solution. The bottle was subjected to slow vortex shaking to completely dissolve the substrate. The cell culture plate was taken out and balanced to room temperature for 30 min. 50 μL of CellTiter-Glo working solution was added to each well. The cell plate was wrapped with aluminum foil to keep out of light. The plate was shaken on an orbital shaker for 2 min to induce cell lysis. The plate was placed at room temperature for 10 min to stabilize the luminescence signals. The luminescence signals were detected on 2104 En Vision plate reader.
Inhibition rates of compounds at different concentrations were calculated in Excel, followed by plotting the inhibition curves and calculating relevant parameters including minimum (%), maximum (%), and absolute IC50 using GraphPad Prism software.

[1] = In vivo pharmacokinetic properties in mice; parameters: species or system mouse; Cmax: unit: ng/mL; settings: male ICR mice; for F: intragastric 250 mg/kg vs intravenous 5 mg/kg; for AUC0-∞ / CL / Cmax / T1/2 / Tmax / AUC(0-inf) / half-life: single intravenous 5 mg/kg and intragastric 250 mg/kg study
Protocol: Male ICR mice were divided into different groups with 3 mice in each group, and single intravenous injection and single intragastric administration were conducted respectively. The compounds were formulated with 10% DMSO/90% (20% Captisol) to reach an appropriate concentration and then administered intravenously at 5 mg/kg. The compounds were formulated with 0.5% CMC-Na/0.1% Tween 80 (pH=3-4) to reach an appropriate concentration and then administered intragastrically at 250 mg/kg. Blood was taken at 5 min, 15 min, 30 min, 1 h, 2 h, 4 h, 6 h, 8 h and 24 h after administration, and then subjected to EDTA-K2 anticoagulation. The concentration of the compound in the plasma was quantitatively detected by an LC-MS/MS method.

WSU-DLCL2 cells = experiment: Experiment on WSU-DLCL2 cell proliferation (Calcein-AM); type: cell-based
Protocol: WSU-DLCL2 cells were plated in a 96-well plate and 100 uL of cells (a density of 1×10^5 cells/mL) and 50 uL of compound stock at 3-fold concentration was added to each well, and the final volume was 150 uL/well. After 6 days of culturing, on day 7, the cells in the well plate were mixed well by pipetting, and 50 uL of the cell suspension was pipetted to be tested for cell viability using Calcein-AM. 50 uL of the cell suspension was added to a 96-well plate coated by poly-D-Lysine, and then 50 uL of HBSS containing 2 uM Calcein-AM was added to make the final concentration of Calcein-AM 1 uM. After incubation for 10 min at room temperature, the cells were rapidly centrifuged to be deposited on the bottom of the plate. The cells were cultured in the incubator for another 40 min and then the plate was read on Acumen.
The remaining cells were diluted and then plated in a 96-well plate, and 100 uL of cells and 50 uL of a compound at 3-fold concentration were added to each well for further culturing until day 14, and the cell viability was detected as described above. The IC50 was calculated.

[2] = test system: subcutaneous xenograft tumor model of human B lymphocyte Pfeiffer; experiment: In vivo efficacy in subcutaneous xenograft tumor model of human B lymphocyte Pfeiffer; parameters: species or system mouse; settings: SCID Beige mice, tumor volume 21 days after administration
Protocol: Human B lymphocyte strain Pfeiffer was cultured in vitro, in a monolayer way, in a RPMI-1640 medium containing 10% fetal bovine serum, 100 U/mL penicillin and 100 μg/mL streptomycin in an incubator at 37° C./5% CO2. Conventional medium refreshment and subculturing were carried out twice a week, and cells in logarithmic growth phase were collected and used for tumor inoculation after being counted.
Female SCID Beige mice, aged 6-8 weeks and weighed 18-22 g were used in the experiment. The experiment started after 7-day adaptive feed.
Each mouse was inoculated subcutaneously with 10×10^6 Pfeiffer cells in a volume of 0.2 mL in the right side of the neck. The cells were suspended with PBS and matrigel (volume ratio 1:1). After the average tumor volume reached 130 mm^3, the mice were divided into groups with 8 mice per group for administration. The administration volume was 10 uL/g and the dose was 100 mg/kg if there's no special labeling ((p.o. administration, QD, continuous administration for 21 days).
Animal body weights were measured twice weekly and animal mortality and side effects within each group were recorded based on the number of animals in the group.
The experimental indices were to investigate whether tumor growth was inhibited or delayed or the tumor was cured. Tumor diameters were measured twice weekly using a vernier caliper. The tumor volume was calculated according to the following formula: V=0.5 a×b^2, where a and b represent the long diameter and short diameter of the tumor, respectively. The tumor growth inhibitions (TGIs) of the compounds were evaluated by T/C (%). The percentage value of T/C (%) is an index for reflecting the tumor growth inhibition, where T and C represent the average tumor volume of the administration group and the control group, respectively, at a certain day.
The tumor growth inhibition rate was calculated according to the following formula: TGI (%)=(1−(Ti−T0)/(Vi−V0))×100, where Ti is the average tumor volume of a certain administration group on a certain day, T0 is the average tumor volume of the administration group at the start of administration, Vi is the average tumor volume of the vehicle control group on a certain day (same day as Ti) and V0 is the average tumor volume of the vehicle control group at the start of administration.
Relative tumor volumes at each time point for each group were statistically analyzed and differences among groups were assessed based on the data. The statistical method used for testing was one-way ANOVA.

EZH2 enzyme complex = EZH2 enzyme complex (Homo sapiens (Human), UniProt Q15910); experiment: Test on EZH2 inhibitory activity (TR-FRET); type: biochemical; settings: EZH2 enzyme complex 25 ng/uL, histone H3 peptide 4 uM, SAM 2 uM, 300 min; read-out: IC50 of EZH2 inhibition
Chain of EZH2 enzyme complex (Q15910 whole entry): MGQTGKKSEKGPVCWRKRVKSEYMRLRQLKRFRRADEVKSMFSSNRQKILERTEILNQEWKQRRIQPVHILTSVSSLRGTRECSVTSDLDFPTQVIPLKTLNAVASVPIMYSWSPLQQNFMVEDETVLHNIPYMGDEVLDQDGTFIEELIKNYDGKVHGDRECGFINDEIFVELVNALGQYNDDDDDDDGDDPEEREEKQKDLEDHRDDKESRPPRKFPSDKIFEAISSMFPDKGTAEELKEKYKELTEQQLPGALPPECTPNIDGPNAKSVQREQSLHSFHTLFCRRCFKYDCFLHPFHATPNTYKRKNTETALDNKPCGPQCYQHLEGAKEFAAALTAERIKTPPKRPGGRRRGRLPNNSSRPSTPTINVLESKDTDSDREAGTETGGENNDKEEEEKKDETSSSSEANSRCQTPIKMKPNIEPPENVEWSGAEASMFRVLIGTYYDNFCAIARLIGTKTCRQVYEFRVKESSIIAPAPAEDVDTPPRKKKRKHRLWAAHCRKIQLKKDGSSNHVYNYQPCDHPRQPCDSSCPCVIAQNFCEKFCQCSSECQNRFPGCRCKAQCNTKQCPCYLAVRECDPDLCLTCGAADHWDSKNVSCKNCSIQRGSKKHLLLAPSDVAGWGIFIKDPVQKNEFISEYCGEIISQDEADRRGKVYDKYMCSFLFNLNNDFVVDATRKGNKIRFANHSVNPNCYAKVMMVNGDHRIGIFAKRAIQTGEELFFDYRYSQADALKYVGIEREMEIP
Chain of EZH2 enzyme complex (O75530 whole entry partner): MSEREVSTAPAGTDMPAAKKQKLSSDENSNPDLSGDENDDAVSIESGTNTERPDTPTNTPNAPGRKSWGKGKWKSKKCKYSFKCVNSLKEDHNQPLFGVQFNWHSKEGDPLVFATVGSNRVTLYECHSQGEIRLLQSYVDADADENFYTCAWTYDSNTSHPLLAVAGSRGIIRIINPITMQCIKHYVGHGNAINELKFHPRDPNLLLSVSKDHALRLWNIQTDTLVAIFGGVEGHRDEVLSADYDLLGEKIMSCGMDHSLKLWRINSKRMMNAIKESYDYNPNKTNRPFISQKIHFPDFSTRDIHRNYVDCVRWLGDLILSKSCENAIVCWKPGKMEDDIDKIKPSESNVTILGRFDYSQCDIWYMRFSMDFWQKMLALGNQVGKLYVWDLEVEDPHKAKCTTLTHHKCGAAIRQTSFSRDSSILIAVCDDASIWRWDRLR
Chain of EZH2 enzyme complex (Q15022 whole entry partner): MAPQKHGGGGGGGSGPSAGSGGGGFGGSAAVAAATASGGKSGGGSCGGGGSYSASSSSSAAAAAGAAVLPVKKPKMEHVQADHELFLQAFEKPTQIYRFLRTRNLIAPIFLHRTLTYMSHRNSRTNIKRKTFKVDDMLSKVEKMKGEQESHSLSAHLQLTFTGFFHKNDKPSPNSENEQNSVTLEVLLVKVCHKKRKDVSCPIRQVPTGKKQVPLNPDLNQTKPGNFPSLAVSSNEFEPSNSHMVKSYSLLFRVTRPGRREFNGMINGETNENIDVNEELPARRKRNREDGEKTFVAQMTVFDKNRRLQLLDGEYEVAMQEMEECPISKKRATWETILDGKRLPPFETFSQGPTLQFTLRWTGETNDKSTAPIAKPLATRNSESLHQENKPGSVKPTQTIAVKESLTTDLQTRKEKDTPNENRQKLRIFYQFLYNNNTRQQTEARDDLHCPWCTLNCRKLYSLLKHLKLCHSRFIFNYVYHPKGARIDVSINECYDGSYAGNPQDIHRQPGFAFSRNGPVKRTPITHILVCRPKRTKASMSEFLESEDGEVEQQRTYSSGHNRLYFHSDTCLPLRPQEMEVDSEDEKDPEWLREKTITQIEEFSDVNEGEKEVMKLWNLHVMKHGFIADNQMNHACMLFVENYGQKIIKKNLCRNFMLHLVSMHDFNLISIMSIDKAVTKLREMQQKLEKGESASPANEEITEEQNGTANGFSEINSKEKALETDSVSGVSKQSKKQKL

EZH2 (Y641F) = EZH2 (Y641F) (Homo sapiens (Human), UniProt Q15910, Y641F); experiment: Test on EZH2 (Y641F) inhibitory activity; type: biochemical
Chain of EZH2 (Y641F) (Q15910 whole entry Y641F): as the sequence (Q15910 whole entry) above, with Y641F counted along it
Chain of EZH2 (Y641F) (O75530 whole entry partner): as the sequence (O75530 whole entry partner) above
Chain of EZH2 (Y641F) (Q15022 whole entry partner): as the sequence (Q15022 whole entry partner) above
Protocol: (§1) Compounds at different concentrations were dissolved in 100% DMSO and transferred to test plates, and the final concentration of DMSO was 1%. Enzyme solution and substrate SAM solution were prepared with 1-fold reaction buffer (optimized Tris buffer). 5 uL of enzyme solution was added to the test plate and wells only added with 5 uL of reaction buffer were used as negative control wells. After incubation at room temperature for 15 min, the plate was added with 5 uL of substrate solution per well to initiate the reaction, and then incubated at room temperature for 60 min. 5 uL of receptor solution was added and the plate was incubated away from light at room temperature for 60 min. 10 uL of donor solution was added and the plate was incubated away from light at room temperature for 30 min. The endpoint values were read on the Envision and the IC50 was calculated.
(§2) Data were fitted by GraphPad Prism 5 software and inhibition rate was calculated according to equation (1) Inh %=(Max−Signal)/(Max−Min)×100 (1)
(§3) IC50 was calculated using equation (2) Y=Bottom+(Top−Bottom)/(1+10^((Log IC50−X)×Hill Slope))
(§4) Y: inhibition rate; X: concentration of the compound

EZH2 (Y641N) = EZH2 (Y641N) (Homo sapiens (Human), UniProt Q15910, Y641N); experiment: Test on EZH2 (Y641N) inhibitory activity; type: biochemical
Chain of EZH2 (Y641N) (Q15910 whole entry Y641N): as the sequence (Q15910 whole entry) above, with Y641N counted along it
Chain of EZH2 (Y641N) (O75530 whole entry partner): as the sequence (O75530 whole entry partner) above
Chain of EZH2 (Y641N) (Q15022 whole entry partner): as the sequence (Q15022 whole entry partner) above
Protocol: as §1, §2, §3, §4

EZH2 (wt) = EZH2 (wt) (Homo sapiens (Human), UniProt Q15910); experiment: Test on EZH2 (wt) inhibitory activity ([3H]-SAM Flashplate); type: biochemical
Chain of EZH2 (wt) (Q15910 whole entry): as the sequence (Q15910 whole entry) above
Chain of EZH2 (wt) (O75530 whole entry partner): as the sequence (O75530 whole entry partner) above
Chain of EZH2 (wt) (Q15022 whole entry partner): as the sequence (Q15022 whole entry partner) above
Protocol: Protocols Compounds at different concentrations were dissolved in 100% DMSO and transferred to test plates, and the final concentration of DMSO was 1%. The enzyme solution and the mixture solution of peptide and [3H]-SAM were prepared with 1-fold reaction buffer. 10 uL of enzyme solution was added to the test plate and wells only added with 10 uL of reaction buffer were used as negative control wells. After incubation at room temperature for 15 min, the plate was added with 10 uL of the mixture solution of peptide and [3H]-SAM per well to initiate the reaction which lasts for 60 min at room temperature. The pre-cooled SAM was added to 1-fold reaction buffer to prepare a stop buffer. The reaction was stopped by adding 10 uL of stop buffer per well. 25 uL of solution was transferred from the reaction plate to Flashplate and incubated at room temperature for at least 1 h. The Flashplate was washed 3 times with dH2O+0.1% Tween-20. The plate was read by Microbeta.
as §2, §3, §4

[3] = Day 7, read-out: IC50 Pfeiffer proliferation Day 7
[4] = Day 14, read-out: IC50 Pfeiffer proliferation Day 14
[5] = WSU-DLCL2, Day 7, read-out: IC50 WSU-DLCL2 proliferation Day 7
[6] = WSU-DLCL2, Day 14, read-out: IC50 WSU-DLCL2 proliferation Day 14
[7] = Homo sapiens, 168 h, Day 7, read-out: IC50 Pfeiffer proliferation Day 7
[8] = Homo sapiens, 336 h, Day 14, read-out: IC50 Pfeiffer proliferation Day 14
[9] = mouse, plasma, oral, read-out: Cmax
[10] = mouse, plasma, oral, read-out: Tmax
[11] = Homo sapiens, WSUDLCL2, 168 h, WSU-DLCL2, Day 7, read-out: IC50 WSU-DLCL2 proliferation Day 7
[12] = Homo sapiens, WSUDLCL2, 336 h, WSU-DLCL2, Day 14, read-out: IC50 WSU-DLCL2 proliferation Day 14

Row | AUC0-∞ [1] [ng·h/mL] | Cmax [1] [ng/mL] | T1/2 [1] [h] | Tmax [1] [h] | SMILES | IC50 (Pfeiffer cells; [3]) [nM] | IC50 (Pfeiffer cells; [4]) [nM] | F [1] [%] | CL [1] [mL/min/lg] | IC50 (WSU-DLCL2 cells; [5]) [nM] | IC50 (WSU-DLCL2 cells; [6]) [nM] | AUC(0-inf) ([1]; mouse, plasma, oral) [ng·h/mL] | Cmax [1, 9] [ng/mL] | Tmax [1, 10] [h] | half-life ([1]; mouse, plasma) [h] | also measured
1 | 7476 ± 1311 | 4059 ± 1830 | 2.13 ± 1.02 | 0.83 ± 0.29 | CCN(c1cc(OC2CN(C(=O)OC(C)(C)C)C2)cc(C(=O)NCc2c(C)cc(C)[nH]c2=O)c1C)C1CCOCC1 [EPZ194, reference compound] | 62 | 11 | 9.91 | 59.5 ± 19.1 | 106 | 23 |  |  |  |  | 
2 | 3071 ± 486 | 945 ± 283 | 5.12 ± 0.89 | 1.42 ± 1.01 | CCN(c1cc(OC2CNC2)cc(C(=O)NCc2c(C)cc(C)[nH]c2=O)c1C)C1CCOCC1 [EPZ195, reference compound] | 385 | 127 | 2.64 | 36.5 ± 6.21 | 1430 | 281 |  |  |  |  | 
3 | 3918 ± 1710 | 1485 ± 860 | 2.19 ± 1.32 | 0.83 ± 0.29 | CCN(c1cc(OC2CN(C)C2)cc(C(=O)NCc2c(C)cc(C)[nH]c2=O)c1C)C1CCC(N(C)C)CC1 (stereo not shown) [EPZ349, reference compound] | 104 | 33 | 12.8 | 149 ± 57.0 | 563 | 110 |  |  |  |  | TGI ([2]; 100 mg/kg p.o. QD 21 days): 22.39%
4 |  |  |  |  | CCN(c1cc(O[C@H]2C[C@H](N3CCOCC3)C2)cc(C(=O)NCc2c(C)cc(C)[nH]c2=O)c1C)C1CCC(F)(F)CC1 [Example 63, 3-((4,4-difluorocyclohexyl)(ethyl)amino)-N-((4,6-dimethyl-2-oxo-1,2-dihydropyridin-3-yl)methyl)-2-methyl-5-(trans-3-morpholinocyclobutoxy)benzamide] |  |  |  |  |  |  |  |  |  |  | IC50 (EZH2 enzyme complex): 10 to 100 nM; TGI ([2]; 100 mg/kg p.o. QD 21 days): 53.67%
5 |  |  |  |  | CCN(c1cc(O[C@H]2C[C@H](N3CCCCC3)C2)cc(C(=O)NCc2c(C)cc(C)[nH]c2=O)c1C)C1CCC(F)(F)CC1 [Example 68, 3-((4,4-difluorocyclohexyl)(ethyl)amino)-N-((4,6-dimethyl-2-oxo-1,2-dihydropyridin-3-yl)methyl)-2-methyl-5-(trans-3-(piperidin-1-yl)cyclobutoxy)benzamide] |  |  | 56.5 | 27.1 ± 5.94 |  |  | 89500 | 9250 ± 181 | 1.33 ± 0.58 | 10.4 ± 8.53 | TGI ([2]; 50 mg/kg p.o. QD 21 days): 94.28%; IC50 (Pfeiffer cells; [7]): 13 nM; IC50 (Pfeiffer cells; [8]): 4.6 nM; IC50 (WSU-DLCL2 cells; [11]): 49 nM; IC50 (WSU-DLCL2 cells; [12]): 12 nM
6 |  |  |  |  | CCN(c1cc(O[C@H]2C[C@H](N3CCCCC3)C2)cc(C(=O)NCc2c(OC)cc(C)[nH]c2=O)c1C)C1CCC(F)(F)CC1 [Example 91, 3-((4,4-difluorocyclohexyl)(ethyl)amino)-N-((4-methoxy-6-methyl-2-oxo-1,2-dihydropyridin-3-yl)methyl)-2-methyl-5-(trans-3-(piperidin-1-yl)cyclobutoxy)benzamide] |  |  | 82.3 | 66.9 ± 3.70 |  |  | 51600 | 9350 ± 1900 | 1.67 ± 0.58 | 7.72 ± 3.14 | TGI ([2]; 50 mg/kg p.o. QD 21 days): 89.39%; IC50 (Pfeiffer cells; [7]): 6 nM; IC50 (Pfeiffer cells; [8]): 2 nM; IC50 (WSU-DLCL2 cells; [11]): 24 nM; IC50 (WSU-DLCL2 cells; [12]): 6 nM
7 |  |  |  |  | CCN(c1cc(O[C@H]2C[C@H](N3CCCCC3)C2)cc(C(=O)NCc2c(C)cc(C)[nH]c2=O)c1C)C1CCOCC1 [Example 92] |  |  | 48.6 | 80.84 ± 5.78 |  |  | 25200 ± 4540 | 9440 ± 1000 | 0.58 ± 0.38 | 2.03 ± 1.14 | IC50 (EZH2 (Y641F)): < 0.51 nM; IC50 (EZH2 (Y641N)): < 0.51 nM; IC50 (EZH2 (wt)): 0.52 nM
8 |  |  |  |  | CCN(c1cc(O[C@H]2C[C@H](N3CCCCC3)C2)cc(C(=O)NCc2c(O)cc(C)[nH]c2=O)c1C)C1CCC(F)(F)CC1 [Example 94, 3-((4,4-difluorocyclohexyl)(ethyl)amino)-N-((4-hydroxy-6-methyl-2-oxo-1,2-dihydropyridin-3-yl)methyl)-2-methyl-5-(trans-3-(piperidin-1-yl)cyclobutoxy)benzamide] |  |  |  |  |  |  |  |  |  |  | IC50 (EZH2 (Y641F)): 123 nM; IC50 (EZH2 (Y641N)): 100 nM; IC50 (EZH2 (wt)): 145 nM
